Values belong to the compound of their own block, whether it stands above or below them.
Experiments:
[1] = small animal PET imaging of 2-[18F]FBTTP in healthy mice; assay type: in vivo; conditions: 350 μCi via tail vein, PET at 10 min, 30 min, 1 hour and 2 hours post-injection
Protocol: (R)-2-((2-amino-5-mercaptothiazolo[4,5-d]pyrimidin-7-yl)amino)-4-methylpentan-1-ol was synthesized as previously reported (Karlstrom et al., 2013) and alkylated with 2-[^18F]fluoro-benzylbromide to produce 2-[^18F]FBTTP. 2-[^18F]fluorobenzylbromide was prepared by a one-pot microwave radiofluorination of 2-formyl-N,N,N-trimethylbenzenanilinium triflate followed by sodium borohydride reduction, and bromination with 48% HBr using a procedure analogous to that reported for the preparation of 4-[^18F]fluoro-benzylbromide (Cho et al., 2012; Ravert et al., 2014). 2-[^18F]FBTTP (350 μCi) was injected via the tail vein of healthy mice and imaged using small animal PET. Images were collected at 10, 30, 60, and 120 min post-injection. 2-[^18F]FBTTP was prepared in a decay corrected yield of 10.2% in a specific activity of 1500 Ci/mmol (55,500 GBq/mmol) in a total synthesis time of 110 min.
To evaluate in vivo pharmacokinetics of 2-[^18F]FBTTP, 350 μCi of the radiotracer was formulated in 200 μL of saline with 10% ethanol and injected into healthy mice via the tail vein. The images were collected at 10 min, 30 min, 1 hour and 2 hours post-injection.

CXCR2 = target: T1, CXCR2 (Homo sapiens, UniProt P25025); conditions: cited from earlier work; for Ki: binding affinity, reported
T1 sequence (P25025 1-360): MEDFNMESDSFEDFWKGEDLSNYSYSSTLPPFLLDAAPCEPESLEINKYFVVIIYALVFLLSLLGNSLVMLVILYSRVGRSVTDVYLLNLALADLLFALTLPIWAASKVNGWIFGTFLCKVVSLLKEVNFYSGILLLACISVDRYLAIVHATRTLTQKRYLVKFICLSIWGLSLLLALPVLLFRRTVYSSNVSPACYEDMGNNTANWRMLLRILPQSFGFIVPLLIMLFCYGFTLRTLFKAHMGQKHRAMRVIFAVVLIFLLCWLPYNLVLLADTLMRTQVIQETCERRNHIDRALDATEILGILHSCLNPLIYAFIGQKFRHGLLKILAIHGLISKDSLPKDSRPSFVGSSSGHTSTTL

CX3CR1 = target: T2, CX3CR1 (Homo sapiens, UniProt P49238); conditions: binding affinity, reported; cited from earlier work
T2 sequence (P49238 1-355): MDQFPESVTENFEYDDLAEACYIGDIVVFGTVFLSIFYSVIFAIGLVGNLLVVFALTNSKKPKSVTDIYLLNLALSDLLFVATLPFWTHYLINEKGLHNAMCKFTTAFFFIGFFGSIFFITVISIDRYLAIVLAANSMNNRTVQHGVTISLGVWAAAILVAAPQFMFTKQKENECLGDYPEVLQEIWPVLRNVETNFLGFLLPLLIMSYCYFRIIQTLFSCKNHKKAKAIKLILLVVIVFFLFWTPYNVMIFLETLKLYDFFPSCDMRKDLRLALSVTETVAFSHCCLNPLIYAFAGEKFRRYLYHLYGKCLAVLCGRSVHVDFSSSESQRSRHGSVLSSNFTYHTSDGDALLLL

- in vivo pharmacokinetics [1]: favorable in vivo pharmacokinetics
Structure (SMILES): CC(C)CC(CO)Nc1nc(SCc2ccccc2[18F])nc2nc(N)sc12 (centres unmarked) [2-[^18F]FBTTP, 2-((2-amino-5-((2-[18F]fluorobenzyl)thio)thiazolo[4,5-d]pyrimidin-7-yl)amino)-4-methylpentan-1-ol]

Structure (SMILES): CC(C)C[C@H](CO)Nc1nc(SCc2ccccc2F)nc2nc(N)sc12 [Compound 9d, (R)-2-((2-amino-5-((2-fluorobenzyl)thio)thiazolo[4,5-d]pyrimidin-7-yl)amino)-4-methylpentan-1-ol]
- selectivity over CXCR2 (CXCR2; CX3CR1 over CXCR2): 18 fold

Structure (SMILES): CC(C)C[C@H](CO)Nc1nc(SC(C)c2ccccc2F)nc2nc(N)sc12 (stereo partly drawn) [Compound 9e, (2R)-2-((2-amino-5-((1-(2-fluorophenyl)ethyl)thio)thiazolo[4,5-d]pyrimidin-7-yl)amino)-4-methylpentan-1-ol]
- Ki (CX3CR1): 0.0047 µM
- Ki (CXCR2): 1.4 µM

Structure (SMILES): CC(C)C[C@H](CO)Nc1nc(SCc2ccc(Br)cc2F)nc2nc(N)sc12 [Compound 9f, (R)-2-((2-amino-5-((4-bromo-2-fluorobenzyl)thio)thiazolo[4,5-d]pyrimidin-7-yl)amino)-4-methylpentan-1-ol]
- Ki (CXCR2): 1.4 µM

Reference: patent US20180222922A1, “RADIOFLUORINATED 7-AMINO-5-THIO-THIAZOLO[4,5-D]PYRIMIDINES FOR IMAGING FRACTALKINE RECEPTOR (CX3CR1)” (THE JOHNS HOPKINS UNIVERSITY, priority 2015, published 2018)
